From patent publication US20090302265A1, “Supercooling promoting agent” (priority 2006, published 2009)

Experiments:
[1] = tested on: dead bacterial cells of ice nucleation active bacteria (Erwinia ananas); test: supercooling activity (droplet freezing on cooled copper plate, temperature at which 50% of droplets are frozen); format: physicochemical; settings: cooling 0.2° C./min; for supercooling activity (difference of freezing point vs buffer with ice nucleation bacteria only): 0.5 mg/mL test sample, 50 mM potassium phosphate buffer pH 7.0, 2 μL droplets; for supercooling activity: 0.1 mg/mL test compound, otherwise as example 1
Protocol: The supercooling activity (or represented as inhibiting activity of ice nucleus formation) is the value measured by the following method. […] A large number of 2 μL droplets of the solution are put on a cupper plate, which is temperature-controllable. Then, the cupper plate is cooled at the rate of 0.2° C./min, the number of frozen droplets are counted macroscopically and the temperature, wherein 50% of droplets are frozen, is defined as freezing point. The supercooling activity is defined as the difference (° C.) between the freezing point of solution containing test sample and ice nucleation active bacteria, and that of solution containing only ice nucleation bacteria and buffer solution.
The supercooling activities of these samples were measured by the following methods. After a buffer solution (50 mM potassium phosphate buffer, pH 7.0) containing dead bacterial cells (Wako pure chemical industries Ltd.,) of ice nucleation active bacteria (Erwinia ananas) mixed with 0.5 mg/mL of a test sample, 2 μL droplets of the solution are put on a cupper plate, which is temperature-controllable. Then, the cupper plate is cooled at the rate of 0.2° C./min, the number of frozen droplets are counted macroscopically and the temperature, wherein 50% of droplets are frozen, is defined as freezing point. The difference (° C.) between the freezing point and that of the buffer solution was measured.

pig liver cells = test: viability of pig liver cells after supercooled storage (trypan blue staining); format: cell-based; settings: 0.01% by weight in UW liquid with 1% by volume DMSO; −5° C. and −8° C.; 1, 4 and 7 days; FIG. 8
Protocol: The storage liquid was prepared by adding 0.01% by weight of kaempferol-7-glucoside (compound 2 (Cj5)), Extrasynthese Co.) and 1% by volume of DMSO (Wako pure chemical industries Ltd., guaranteed reagent) to a buffer solution (UW liquid, 100 mM lactobionic acid, 25 mM KH2PO4, 5 mM MgSO4, 30 mM raffinose, 2.5 mM adenosine, 3 mM GSH, 1 mM allopurinol, 0.25 mg/mL streptomycin, 10 UI/mL penicillin).
For comparison, a mixed solution (UW liquid) without kaempferol-7-O-glucoside and DMSO was prepared.
The viability of cells was evaluated by trypan blue (GIBCO) staining, when pig liver cells 5×10^6 cells/mL were dipped in 0.5 cc of the above storage liquid, supercooled at −5° C. and at −8° C., and stored for 1, 4 and 7 days.

[2] = tested on: cranberry shoot apexes (buds); test: survival of cranberry shoot apexes after vitrification in liquid nitrogen and thawing; settings: 0.05% by weight in 75% vitrification liquid (75% PVS2); liquid nitrogen overnight, thawed at room temperature; FIG. 9A vs 9B
Protocol: As a vitrification liquid, 75% dilution solution of PVS2 liquid (22.5% by volume glycerol, 11.25% by volume of ethyleneglycol, 11.25% by volume of DMSO, […], the remainder was Murashige & Skoog medium, DUCHEFA BIOCHEMIE BV) supplemented with 0.05% by weight of kaempferol-7-O-glucoside (compound 2, Extrasynthese Co.) was used (hereinafter referred to as “75% vitrification liquid”).
For comparison, a mixed solution without kaempferol-7-O-glucoside was prepared. Shoot apexes (buds) are isolated from cranberry (subcultured in Hokkaido University, Graduate School of Agriculture) and dipped in the above mixed solution at room temperature.
On the other hand, survival of shoot apexes, which were dipped in 75% vitrification liquid containing kaempferol-7-O-glucoside at room temperature for a specified loading time, put into liquid nitrogen, frozen for overnight, and then thawed at room temperature, is shown in frozen batch of FIG. 9A. Similarly, survival of the apexes, which were dipped in a vitrification liquid without kaempferol-7-O-glucoside and frozen, is shown in frozen batch of FIG. 9B.

Row | SMILES | supercooling activity (difference of freezing point vs buffer with ice nucleation bacteria only) [1] [°C] | supercooling activity [1] [°C] | other results
1 | COc1c(O)cc(O)c2c(=O)c(OC3OC(CO)[C@@H](O)C(O)[C@H]3O)c(-c3ccc(O)cc3)oc12 (stereo partly drawn) [compound 3, 8-methoxykaempferol-3-O-β-glucoside] | −0.2 | – | –
2 | O=c1c(OC2OC(CO)[C@@H](O)C(O)[C@H]2O)c(-c2ccc(O)cc2)oc2cc(O)cc(O)c12 (stereo partly drawn) [compound 4, kaempferol-3-O-β-glucoside] | −2.5 | – | –
3 | C[C@@H]1O[C@@H](O[C@H]2[C@H](Oc3cc(O)c4c(=O)cc(-c5ccc(O)cc5)oc4c3)O[C@H](CO)[C@@H](O)[C@@H]2O)[C@H](O)[C@H](O)[C@H]1O [compound 8, apigenin 7-O-β-neohesperidoside] | – | −1.8 | –
4 | O=c1cc(-c2ccc(O[C@@H]3O[C@H](CO)[C@@H](O)[C@H](O)[C@H]3O)cc2)oc2cc(O[C@@H]3O[C@H](CO)[C@@H](O)[C@H](O)[C@H]3O)cc(O)c12 [compound 7, apigenin 4′, 7-di-O-β-D-glucopyranoside] | – | −4.9 | –
5 | O=c1cc(-c2ccccc2)oc2cc(O[C@@H]3O[C@H](CO)[C@@H](O)[C@H](O)[C@H]3O)cc(O)c12 [compound 5, Chrycin-7-O-β-D-glucopyranoside] | – | −4.5 | –
6 | O=c1c(OC2OC(CO)[C@@H](O)C(O)[C@H]2O)c(-c2ccc(O)c(O)c2)oc2cc(O)cc(O)c12 (stereo partly drawn) [compound 1, quercetin-3-O-β-glucoside] | −1.8 | – | –
7 | O=c1cc(-c2ccc(O)cc2)oc2cc(O[C@@H]3O[C@H](CO)[C@@H](O)[C@H](O)[C@H]3O)cc(O)c12 [compound 6, apigenin 7-O-β-D-glucopyranoside] | – | −12.0 | –
8 | O=c1c(O)c(-c2ccc(O)cc2)oc2cc(OC3OC(CO)[C@@H](O)C(O)[C@H]3O)cc(O)c12 (stereo partly drawn) [compound 2, kaempherol-7-O-β-glucoside] | −7.7 | – | viability of cells after supercooled storage (pig liver cells): enables storage of viable animal cells for long-term; survival of shoot apexes after freezing (damage due to freezing) [2]: significantly reduced the damage due to freezing
